Experiments:
[1] = target: T1, human dipeptidyl peptidase III (hDPP III) (Homo sapiens, UniProt Q9NY33); test: spectrophotometric enzyme assay with Arg2-2NA substrate, purified hDPP III; assay type: biochemical; details: read-out: DPP III Inh. (%)
T1 construct: gene DPP3; C-terminally truncated human DPP III (His-tag removed by TEV)
T1 sequence (Q9NY33 1-726 limits assumed): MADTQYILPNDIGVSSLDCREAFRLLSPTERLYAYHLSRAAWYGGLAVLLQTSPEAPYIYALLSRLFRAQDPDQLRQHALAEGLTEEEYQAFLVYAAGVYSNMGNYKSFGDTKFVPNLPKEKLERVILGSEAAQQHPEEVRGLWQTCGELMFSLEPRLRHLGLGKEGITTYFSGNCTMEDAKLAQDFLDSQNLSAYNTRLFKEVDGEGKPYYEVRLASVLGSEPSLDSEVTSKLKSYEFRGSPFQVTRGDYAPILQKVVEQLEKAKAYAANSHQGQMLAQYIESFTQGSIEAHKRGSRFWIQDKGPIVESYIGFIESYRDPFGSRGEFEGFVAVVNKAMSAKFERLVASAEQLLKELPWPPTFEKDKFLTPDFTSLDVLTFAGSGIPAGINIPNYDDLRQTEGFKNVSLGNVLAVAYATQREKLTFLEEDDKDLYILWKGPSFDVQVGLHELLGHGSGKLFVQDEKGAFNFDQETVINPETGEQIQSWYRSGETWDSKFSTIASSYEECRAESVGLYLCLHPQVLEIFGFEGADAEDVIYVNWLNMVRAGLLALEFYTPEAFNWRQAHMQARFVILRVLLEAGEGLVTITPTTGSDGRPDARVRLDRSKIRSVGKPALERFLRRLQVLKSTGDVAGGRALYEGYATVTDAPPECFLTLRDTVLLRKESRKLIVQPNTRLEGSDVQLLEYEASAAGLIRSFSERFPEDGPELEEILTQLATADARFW

[2] = target: T1, human dipeptidyl peptidase III (hDPP III); test: spectrophotometric enzyme assay, % inhibition at […], purified hDPP III; assay type: biochemical; details: for inhibition at 10 µM: read-out: DPP III Inh. (%)

IC50 [1] [µM] | inhibition at 10 µM [2] [%] | SMILES | further results
1.1 ± 0.05 | – | O=C(c1ccccc1)c1cc2ccc(O)cc2oc1=O [compound 12, 3-benzoyl-7-hydroxy-2H-chromen-2-one] | –
– | – | CCOC(=O)c1cc2cc(O)ccc2oc1=O [compound 27, 3-ethoxycarbonyl; 6-hydroxy (substituted 2H-chromen-2-one)] | DPP III Inh. (%) ([2]; 10 µM): 66.0
2.14 ± 0.06 | – | COC(=O)c1cc2ccc(O)cc2oc1=O [compound 36, methyl 7-hydroxy-2-oxo-2H-chromene-3-carboxylate] | –
– | 62.6 | N#Cc1cc2cccc(O)c2oc1=O [compound 21, 3-cyano; 8-hydroxy (substituted 2-oxo-2H-chromene-3-carbonitrile)] | –
– | 44.6 | N#Cc1cc2cc(O)ccc2oc1=O [compound 18, 3-cyano; 6-hydroxy (substituted 2-oxo-2H-chromene-3-carbonitrile)] | –
– | 67.5 | O=C(c1ccccc1)c1cc2cc(O)ccc2oc1=O [compound 10, 3-benzoyl; 6-hydroxy (substituted 2H-chromen-2-one)] | –
